ChEMBL document CHEMBL3885881, “DrugMatrix”

Organism: Rattus norvegicus
Assay: DrugMatrix - Regimen: Daily Repeat
Assay type: toxicity, organism-based, Sprague-Dawley
Design: regimen Daily Repeat, gender Male, age 6-8 weeks
Conditions: in vivo, po, route oral GAVAGE, […]; for ABSOLUTE BASOPHIL / BASOPHIL / NUCLEATED RED BLOOD CELLS / ABSOLUTE EOSINOPHIL / ABSOLUTE LYMPHOCYTE / ABSOLUTE MONOCYTE / ABSOLUTE SEGMENTED NEUTROPHIL / EOSINOPHIL / ERYTHROCYTE COUNT / HEMATOCRIT / HEMOGLOBIN / LEUKOCYTE COUNT / LYMPHOCYTE / MEAN CORPUSCULAR HEMOGLOBIN / MEAN CORPUSCULAR HEMOGLOBIN CONCENTRATION / MEAN CORPUSCULAR VOLUME / MONOCYTE / NEUTROPHIL / PLATELET COUNT: tissue Blood; for TOTAL BILIRUBIN / ALANINE AMINOTRANSFERASE / ALBUMIN / ALKALINE PHOSPHATASE / ASPARTATE AMINOTRANSFERASE / BLOOD UREA NITROGEN / CARBON DIOXIDE / CHLORIDE / CHOLESTEROL / CREATINE PHOSPHOKINASE / CREATININE / GLUCOSE / LACTATE DEHYDROGENASE / LIPASE / PHOSPHORUS / POTASSIUM / SODIUM / TOTAL PROTEIN / URIC ACID: tissue Plasma
[1] = 0 mg/kg, 72 h, dose level Control, time 3 day
[2] = 0 mg/kg, 120 h, dose level Control, time 5 day
[3] = 10 mg/kg, 72 h, dose level Low, time 3 day
[4] = 10 mg/kg, 120 h, dose level Low, time 5 day

COc1ccc2cc([C@H](C)C(=O)O)ccc2c1 [NAPROXEN]
ABSOLUTE BASOPHIL [1]: 0 CELLS/uL
BASOPHIL [1]: 0%
NUCLEATED RED BLOOD CELLS [1]: 0 /100WBC
TOTAL BILIRUBIN [1]: 0.2 mg/dL
ABSOLUTE BASOPHIL [2]: 0 CELLS/uL
BASOPHIL [2]: 0%
ABSOLUTE BASOPHIL [3]: 0 CELLS/uL
ABSOLUTE EOSINOPHIL [3]: 0 CELLS/uL
ABSOLUTE LYMPHOCYTE [3]: 16953.33 CELLS/uL
ABSOLUTE MONOCYTE [3]: 484 CELLS/uL
ABSOLUTE SEGMENTED NEUTROPHIL [3]: 1296 CELLS/uL
BASOPHIL [3]: 0%
EOSINOPHIL [3]: 0%
ERYTHROCYTE COUNT [3]: 5.66 x10E6/uL
HEMATOCRIT [3]: 36.03%
HEMOGLOBIN [3]: 14.13 G/DL
LEUKOCYTE COUNT [3]: 18.73 x10E3/uL
LYMPHOCYTE [3]: 90.67%
MEAN CORPUSCULAR HEMOGLOBIN [3]: 25.03 pg
MEAN CORPUSCULAR HEMOGLOBIN CONCENTRATION [3]: 39.23 G/DL
MEAN CORPUSCULAR VOLUME [3]: 63.73 fL
MONOCYTE [3]: 2.67%
NEUTROPHIL [3]: 6.67%
NUCLEATED RED BLOOD CELLS [3]: 0.33 /100WBC
PLATELET COUNT [3]: 1140 x10E3/uL
ALANINE AMINOTRANSFERASE [3]: 66 u/L
ALBUMIN [3]: 3.9 G/DL
ALKALINE PHOSPHATASE [3]: 469.67 u/L
ASPARTATE AMINOTRANSFERASE [3]: 84 u/L
BLOOD UREA NITROGEN [3]: 9.67 mg/dL
CARBON DIOXIDE [3]: 20.33 mmol/L
CHLORIDE [3]: 103.67 MEQ/L
CHOLESTEROL [3]: 54.33 mg/dL
CREATINE PHOSPHOKINASE [3]: 295.33 u/L
CREATININE [3]: 0.19 mg/dL
GLUCOSE [3]: 187.67 mg/dL
LACTATE DEHYDROGENASE [3]: 313.33 u/L
LIPASE [3]: 9.33 u/L
PHOSPHORUS [3]: 12.03 mg/dL
POTASSIUM [3]: 6.09 MEQ/L
SODIUM [3]: 143.67 MEQ/L
TOTAL BILIRUBIN [3]: 0.1 mg/dL
TOTAL PROTEIN [3]: 5.87 G/DL
URIC ACID [3]: 2.03 mg/dL
ABSOLUTE BASOPHIL [4]: 0 CELLS/uL
ABSOLUTE EOSINOPHIL [4]: 321 CELLS/uL
ABSOLUTE LYMPHOCYTE [4]: 16605.33 CELLS/uL
ABSOLUTE MONOCYTE [4]: 680 CELLS/uL
ABSOLUTE SEGMENTED NEUTROPHIL [4]: 1493.67 CELLS/uL
BASOPHIL [4]: 0%
EOSINOPHIL [4]: 2%
ERYTHROCYTE COUNT [4]: 5.33 x10E6/uL
HEMATOCRIT [4]: 34.4%
HEMOGLOBIN [4]: 13.33 G/DL
LEUKOCYTE COUNT [4]: 19.1 x10E3/uL
LYMPHOCYTE [4]: 86.33%
MEAN CORPUSCULAR HEMOGLOBIN [4]: 25.23 pg
MEAN CORPUSCULAR HEMOGLOBIN CONCENTRATION [4]: 38.8 G/DL
MEAN CORPUSCULAR VOLUME [4]: 65 fL
MONOCYTE [4]: 3.67%
NEUTROPHIL [4]: 8%
NUCLEATED RED BLOOD CELLS [4]: 0 /100WBC
PLATELET COUNT [4]: 1322.33 x10E3/uL
ALANINE AMINOTRANSFERASE [4]: 109.67 u/L
ALBUMIN [4]: 3.7 G/DL
ALKALINE PHOSPHATASE [4]: 463.67 u/L
ASPARTATE AMINOTRANSFERASE [4]: 145.33 u/L
BLOOD UREA NITROGEN [4]: 8.33 mg/dL
CARBON DIOXIDE [4]: 19.33 mmol/L
CHLORIDE [4]: 104 MEQ/L
CHOLESTEROL [4]: 40.33 mg/dL
CREATINE PHOSPHOKINASE [4]: 1655.33 u/L
CREATININE [4]: 0.18 mg/dL
GLUCOSE [4]: 252 mg/dL
LACTATE DEHYDROGENASE [4]: 400 u/L
LIPASE [4]: 9 u/L
PHOSPHORUS [4]: 14.07 mg/dL
POTASSIUM [4]: 6.26 MEQ/L
SODIUM [4]: 143.27 MEQ/L
TOTAL BILIRUBIN [4]: 0.17 mg/dL
TOTAL PROTEIN [4]: 5.4 G/DL
URIC ACID [4]: 3.1 mg/dL
